Legend:
PRPS1 [1] = biological target: T1, PRPS1 (Homo sapiens, UniProt P60891); assay: steady-state kinetics, coupled assay at […] nm; format: biochemical
T1 construct: full length
T1 sequence (P60891 2-318): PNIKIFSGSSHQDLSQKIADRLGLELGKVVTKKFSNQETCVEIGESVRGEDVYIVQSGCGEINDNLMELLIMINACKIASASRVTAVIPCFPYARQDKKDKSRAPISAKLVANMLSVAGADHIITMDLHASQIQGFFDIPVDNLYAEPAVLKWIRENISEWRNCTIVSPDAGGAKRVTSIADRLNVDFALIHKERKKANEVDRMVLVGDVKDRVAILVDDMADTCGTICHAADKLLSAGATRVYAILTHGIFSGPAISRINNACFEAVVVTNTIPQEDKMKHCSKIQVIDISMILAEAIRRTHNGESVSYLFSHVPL

PRPS1 [2] = biological target: T1, PRPS1; assay: ITC; co-crystal structure with R5P, ApCpp, Cd2+; enzyme inhibition (IC50 […]); format: binding
PRPS2(-3AA/Q156K) = biological target: T2, PRPS2(-3AA/Q156K) (Homo sapiens, UniProt P11908, Q153K); assay: HPLC feedback inhibition assay (AMP production); format: biochemical
T2 construct: full length chimeric variant, 3AA (V103, G104, E105) deleted
T2 sequence (P11908 2-318 Q153K): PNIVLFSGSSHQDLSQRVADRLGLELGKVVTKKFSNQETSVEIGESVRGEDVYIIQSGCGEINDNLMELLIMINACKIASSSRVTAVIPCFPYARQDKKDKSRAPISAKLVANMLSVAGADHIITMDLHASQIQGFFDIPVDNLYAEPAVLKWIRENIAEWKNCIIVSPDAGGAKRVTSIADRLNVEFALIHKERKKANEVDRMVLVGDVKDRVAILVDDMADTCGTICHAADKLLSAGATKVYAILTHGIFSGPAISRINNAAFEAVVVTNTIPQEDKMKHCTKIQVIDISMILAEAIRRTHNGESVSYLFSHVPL

[3] = biological target: the molecule itself; assay: crystal structure; co-crystallisation of 500 μM purified PRPS with ApCpp or GDP (1:5), R5P, crystals soaked in 1 mM CdCl2; 277 K

## Nc1ncnc2c1ncn2[C@@H]1O[C@H](COP(=O)(O)OP(=O)(O)OP(=O)(O)O)[C@@H](O)[C@H]1O [ATP]
PRPS1 [1]
  steady-state kinetics, coupled assay at 340 nm: The catalytic efficiencies of PRPS2 and PRPS1 on either ATP or R5P were characterized

## Nc1nc2c(ncn2[C@@H]2O[C@H](CO[P@](=O)(O)OP(=O)(O)O)[C@@H](O)[C@H]2O)c(=O)[nH]1 [GDP]
PRPS1 [2]
  Kd: 10 µM
PRPS2(-3AA/Q156K)
  HPLC feedback inhibition assay (AMP production): chimeric variants of PRPS1( + 3AA/K153Q) and PRPS2(-3AA/Q156K), which exhibited switched GDP feedback inhibition responses

B1: PRPS1( + 3AA), PRPS1 chimeric variant (enzyme, human, UniProt P60891 1-318, looked up)
chain: MPNIKIFSGSSHQDLSQKIADRLGLELGKVVTKKFSNQETCVEIGESVRGEDVYIVQSGCGEINDNLMELLIMINACKIASASRVTAVIPCFPYARQDKKDKVGESRAPISAKLVANMLSVAGADHIITMDLHASQIQGFFDIPVDNLYAEPAVLKWIRENISEWRNCTIVSPDAGGAKRVTSIADRLNVDFALIHKERKKANEVDRMVLVGDVKDRVAILVDDMADTCGTICHAADKLLSAGATRVYAILTHGIFSGPAISRINNACFEAVVVTNTIPQEDKMKHCSKIQVIDISMILAEAIRRTHNGESVSYLFSHVPL
notes: PRPS1, human, full length, with the three residues V, G, E of PRPS2 (V103, G104, E105) inserted into the corresponding position of Loop2; the C-terminal residue is then L321; Crystallised with R5P, ApCpp and Cd2+; also called PRPS1 chimera; source: E. coli BL21(DE3), purified (Ni-NTA, ion exchange, Superdex-200); not shown: His-Sumo, N-terminal, cleaved
[3]
  binding result: binds

B2: recombinant PRPS2 (enzyme, human, UniProt P11908-2 1-321, looked up)
chain: MPNIVLFSGSSHQDLSQRVADRLGLELGKVVTKKFSNQETSVEIGESVRGEDVYIIQSGCGEINDNLMELLIMINACKIASSSRVTAVIPCFPYARQDKKDKVGESRAPISAKLVANMLSVAGADHIITMDLHASQIQGFFDIPVDNLYAEPAVLQWIRENIAEWKNCIIVSPDAGGAKRVTSIADRLNVEFALIHKERKKANEVDRMVLVGDVKDRVAILVDDMADTCGTICHAADKLLSAGATKVYAILTHGIFSGPAISRINNAAFEAVVVTNTIPQEDKMKHCTKIQVIDISMILAEAIRRTHNGESVSYLFSHVPL
notes: PRPS2, human, full-length gene synthesised and subcloned into pSumo; the form with V103, G104, E105 (3AA) in Loop2 and Q156, i.e. the 321-residue isoform; Crystallised with R5P, ApCpp and Cd2+; source: E. coli BL21(DE3), purified (Ni-NTA, ion exchange, Superdex-200); not shown: His-Sumo, N-terminal, cleaved
[3]
  binding result: binds

— article PMC12037730 (Nature Communications, 2025)
